Measured values reported in patent US11116721B2, “Pharmaceutical formulations comprising 4-{(1R)-2-[(6-{2-[(2,6-dichlorobenzyl)oxy]ethoxy}hexyl)amino]-1-hydroxyethyl}-2-(hydroxymethyl) phenol” (Glaxo Group Limited, priority 2009, dated 2021).

What was measured:
COPD patients = assay: Clinical pharmacology studies of Compound (I) in COPD patients (FEV1); assay type: in vivo, human; conditions: 100 mcg and 400 mcg, with lactose alone
Excerpt: (§1) Compound (I) as the α-phenylcinnamate salt and the triphenylacetate salt has been studied in a number of clinical pharmacology studies, including single- and repeat-dose studies. In addition, these studies have evaluated Compound (I) with the excipients cellobiose octaacetate and magnesium stearate.
In COPD patients, treatment with 100 mcg and 400 mcg Compound (I) alpha-phenylcinnamate (with lactose alone) achieved a clinically relevant adjusted mean difference from placebo in weighted mean trough FEV1 (22 to 24 hrs) of >100 mL.

beta-2 adrenoreceptor = assay: Animal and human studies of Compound (I): bronchodilation and safety; assay type: in vivo
asthmatic patients [1] = assay: Clinical pharmacology studies of Compound (I) in asthmatic patients (FEV1); assay type: in vivo, human; conditions: all doses of Compound (I)
Excerpt: as §1
In one study in asthmatic patients 100 mcg of Compound (I) triphenylacetate formulated with lactose and magnesium stearate has shown a favourable onset of action.

[2] = Studies of Compound (II) in animal models and humans; assay type: in vivo
asthmatic patients [3] = assay: Clinical pharmacology studies of Compound (II) in asthmatic patients (FEV1); assay type: in vivo, human; conditions: doses of from 100 to 400 mcg
Excerpt: Compound (II) has been studied in a number of clinical pharmacology studies, including single- and repeat-dose studies and at a range of doses. In addition, these studies have evaluated Compound (II) with the excipients cellobiose octaacetate and magnesium stearate.

## O=C(O)C(=Cc1ccccc1)c1ccccc1.OCc1cc([C@@H](O)CNCCCCCCOCCOCc2c(Cl)cccc2Cl)ccc1O [Compound (I) alpha-phenylcinnamate, 4-{(1R)-2-[(6-{2-[(2,6-dichlorobenzyl)oxy]ethoxy}hexyl)amino]-1-hydroxyethyl}-2-(hydroxymethyl)phenol α-phenylcinnamate]
COPD patients
  adjusted mean difference from placebo in weighted mean trough FEV1 (22 to 24 hrs): > 100 mL

## OCc1cc([C@@H](O)CNCCCCCCOCCOCc2c(Cl)cccc2Cl)ccc1O [Compound (I), 4-{(1R)-2-[(6-{2-[(2,6-dichlorobenzyl)oxy]ethoxy}hexyl)amino]-1-hydroxyethyl}-2-(hydroxymethyl)phenol]
beta-2 adrenoreceptor
  bronchodilation: sustained bronchodilation over a 24 hour period
  safety profile: favourable safety profile
Asthmatic patients [1]
  improvement in trough (24-hour) FEV1 compared to placebo: statistically and clinically significant improvement

## C[C@@H]1CC2C3C[C@H](F)C4=CC(=O)C=C[C@]4(C)[C@@]3(F)[C@@H](O)C[C@]2(C)[C@@]1(OC(=O)c1ccco1)C(=O)SCF (stereo partly drawn) [Compound (II), 6α, 9α-difluoro-17α-[(2-furanylcarbonyl)oxy]-11β-hydroxy-16α-methyl-3-oxo-androsta-1,4-diene-17β-carbothioic acid S-fluoromethyl ester]
[2]
  duration of action (inhaled glucocorticosteroid): long acting
Asthmatic patients [3]
  improvement in trough (24-hour) FEV1 compared to placebo: statistically and clinically significant improvement
